Source: patent publication US5677459A, “Methods for the preparation of modulators of acetylcholine receptors” (Sibia Neurosciences, Inc., priority 1995, dated 1997)
Where a name gives a salt, the structure may show the parent alone. Read-outs that look alike come from different tables or passages of the source.

How the values were obtained:
[1] = system: ^3 H-Dopamine release, rat olfactory tubercles; test: Ligand-stimulated ^3 H-dopamine release from rat olfactory tubercles; assay type: cell-based; conditions: in vitro slices, 300 μM
Procedure: (§1) Measurement of ^3 H-dopamine release from rat striatal slices was performed according to the method of Sacaan et al. (J. Neurochem. 59:245 (1992)). Male Sprague-Dawley rats (250-300 g) were decapitated and the striata or olfactory tubercles dissected quickly on a cold glass surface. The tissue was chopped to a thickness of 300 μm with a McIlwain tissue chopper. After chopping again at right angles the tissue was dispersed and incubated for 10 min. at 37° C. in oxygenated Kreb's buffer. ^3 H-Dopamine (40 Ci/mmol, NEN- Dupont, Boston, Mass.) was added (50 nM) and the tissue was incubated for 30 min. in Kreb's buffer containing 10 μM pargyline and 0.5 mM ascorbic acid. Aliquots of the minced tissue were then transferred to chambers of a Brandel Superfusion system in which the tissue was supported on Whatman GF/B filter discs. The tissue was then superfused with buffer at a constant flow rate of 0.3 ml/min by means of a Brandel peristaltic pump. The perfusate was collected in plastic scintillation vials in 3-min fractions, and the radioactivity was estimated by scintillation spectrophotometry. The superfusate for the first 120 min was discarded. After two baseline fractions had been collected, the superfusion buffer was switched to fresh buffer with or without compound of interest. At the end of the experiment the filter and the tissue were removed, and the radiolabeled neurotransmitter content was estimated after extraction into scintillation fluid. The fractional efflux of radiolabeled neurotransmitter was estimated as the amount of radioactivity in the perfusate fraction relative to the total amount in the tissue.
(§2) Results of studies of the effects of an invention compound (as compared to the effect of nicotine) on the release of neurotransmitters from rat brain slices are presented in Table II. Results presented in Part A of the Table are expressed as the percent fractional release and results presented in Part B of the Table are expressed as a percentage, relative to nicotine response.

[2] = system: ^3 H-Dopamine release, rat striatal slices; test: Ligand-stimulated ^3 H-dopamine release from rat striatal slices; assay type: cell-based; conditions: in vitro slices, 300 μM
Procedure: as §1, §2

[3] = system: ^3 H-Norepinephrine release, rat thalamus slices; test: Ligand-stimulated ^3 H-norepinephrine release from rat thalamus slices; assay type: cell-based; conditions: in vitro slices, 300 μM
Procedure: as §1
(§3) Following essentially the same procedure as set forth above, the amount of ^3 H-norepinephrine released from rat hippocampus, thalamus and prefrontal cortex slices superfused with buffer containing (or lacking) compounds of interest was also measured.
as §2

rats = test: Locomotor activity assay; assay type: in vivo, rat (male Sprague-Dawley); conditions: Rattus norvegicus, sc, s.c.
Procedure: This assay can be used to assess the primary effect of a compound on general motor activity. A decrease in locomotor activity is indicative of a possible sedative effect on the animal, whereas an increase in locomotor activity is indicative of a stimulant effect on the animal.
Locomotor activity of rats (male Sprague-Dawley (Harlan) weighing 200-250 gm) was measured for 2 hrs in photocell cages immediately after administration of the invention compound. Prior to the test day, the animals were placed in the activity cages for 3 hrs to familiarize them with the experimental environment. On the test day, the animals were placed in the photocell cages and then injected with compound 1.5 hrs later.
The photocell cages were standard rodent cages (30 cm×20 cm×40 cm) with four infrared beams crossing the long axis. The animals were under no motivational constraints and were free to move around. Movements from one infrared beam to another (ambulation) were called "crossover"; successive interruptions of the same beam (vertical and other movements such as grooming) were called "general activity."

[4] = system: ^3 H-Norepinephrine release, rat hippocampus slices; test: Ligand-stimulated ^3 H-norepinephrine release from rat hippocampus slices; assay type: cell-based; conditions: in vitro slices, 300 μM
Procedure: as §1, §3, §2

[5] = system: ^3 H-Norepinephrine release, rat prefrontal cortex slices; test: Ligand-stimulated ^3 H-norepinephrine release from rat prefrontal cortex slices; assay type: cell-based; conditions: in vitro slices, 300 μM
Procedure: as §1, §3, §2

[6] = system: rats with unilateral 6-hydroxydopamine lesions of the nigrostriatal dopamine pathway; assay type: in vivo, rat (male Sprague-Dawley); conditions: 1 mg/kg base, s.c., per one hour interval
Procedure: Selective lesions of the brain dopamine pathway using the neurotoxin 6-hydroxydopamine (6-OHDA) in rats can be used as an experimental approach to Parkinson's disease. Unilateral lesions of the nigrostriatal dopamine pathway induce a postural asymmetry which becomes manifested as rotation when the animals are activated by dopamine releasers or dopamine agonists. When amphetamine and other stimulant drugs that induce pre-synaptic release of dopamine from intact nerve terminals are administered, the rats rotate in a direction ipsilateral to the lesion. In contrast, when the rats are injected with post-synaptic dopamine receptor agonists, such as apomorphine, they turn in a contralateral direction, due to the development of supersensitive dopamine receptors in the lesioned side. Thus, the 6-OHDA model can be used to determine if a suspected dopaminergic agent is active, and to differentiate whether such action is pre- or post-synaptic.
The effects of invention compounds on rotational behavior in 6-hydroxydopamine denervated rats were evaluated using the procedure of Ungerstedt and Arbutknott, Brain Res. 24:485-493 (1970). Male Sprague-Dawley rats (Zivic Miller) weighing 170-200 gm were used in the 6-OHDA procedure. The ascending nigrostriatal dopamine pathway was lesioned by unilateral stereotaxic injection of 6-OHDA (8.0 μg) into one substantia nigra. All injections of 6-OHDA were preceded by desmethylimipramine (25 mg/kg i.p.) and pargyline (75 mg/kg i.p.) approximately 30 minutes prior to undergoing stereotaxic surgery for 6-OHDA infusion into the substantia nigra. After one week of recovery from surgery, the effectiveness of the lesions was verified by noting the response of the animals to apomorphine (0.2 mg/kg, s.c.). Only rats with a minimum rate of 80 contralateral turns per 30 minutes (a sign of more than 80-90% dopamine depletion after a 6-OHDA lesion) were used. Two weeks later, the selected rats were tested with invention and reference compounds using an automated rotometer system to record the number and direction of rotations. In order to distinguish spontaneous (non-specific)rotations from induced rotations (specific to the effect of the drug), each rat was used as its own control, employing the following procedure:
The rat was placed in the rotometer system for acclimatation for 15 minutes, the vehicle administered subcutaneously, the rat's rotations recorded for one hour, then test compound was administered s.c. and rotations again recorded for one hour. The number of ipsilateral rotations induced by vehicle was then compared to the number of ipsilateral rotations induced by test compound. Statistical analysis of the data was carried out using Student's t-test (paired).

[7] = target: T1, nicotinic acetylcholine receptor (Rattus norvegicus, UniProt P09483+P12390); test: ^3 H-Nicotine binding/displacement, rat cerebral membranes; conditions: ^3 H-nicotine 1.9 nM, rat cerebral membranes; read-out: IC50, Nicotine
T1 construct: the brains removed and the cerebral cortex dissected on ice; from tissue; host or cells: cerebral cortex synaptic membranes of male Sprague-Dawley rats
T1 sequence (P09483 31-630): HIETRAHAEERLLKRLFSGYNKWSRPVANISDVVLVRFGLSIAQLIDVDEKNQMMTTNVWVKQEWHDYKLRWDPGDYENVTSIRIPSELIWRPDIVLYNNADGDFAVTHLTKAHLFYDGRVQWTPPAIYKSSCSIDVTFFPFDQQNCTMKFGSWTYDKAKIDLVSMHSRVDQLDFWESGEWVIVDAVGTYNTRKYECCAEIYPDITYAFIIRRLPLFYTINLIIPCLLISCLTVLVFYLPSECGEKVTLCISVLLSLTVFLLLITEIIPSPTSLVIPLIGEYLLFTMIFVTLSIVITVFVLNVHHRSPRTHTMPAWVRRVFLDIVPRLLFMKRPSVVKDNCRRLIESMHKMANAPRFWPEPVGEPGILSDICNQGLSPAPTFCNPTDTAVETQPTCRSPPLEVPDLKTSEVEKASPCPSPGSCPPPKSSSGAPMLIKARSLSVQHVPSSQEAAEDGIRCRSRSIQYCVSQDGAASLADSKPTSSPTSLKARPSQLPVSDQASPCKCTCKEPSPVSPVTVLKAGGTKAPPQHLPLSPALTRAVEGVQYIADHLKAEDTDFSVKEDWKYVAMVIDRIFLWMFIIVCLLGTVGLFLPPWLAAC
T1 sequence (P12390 25-500): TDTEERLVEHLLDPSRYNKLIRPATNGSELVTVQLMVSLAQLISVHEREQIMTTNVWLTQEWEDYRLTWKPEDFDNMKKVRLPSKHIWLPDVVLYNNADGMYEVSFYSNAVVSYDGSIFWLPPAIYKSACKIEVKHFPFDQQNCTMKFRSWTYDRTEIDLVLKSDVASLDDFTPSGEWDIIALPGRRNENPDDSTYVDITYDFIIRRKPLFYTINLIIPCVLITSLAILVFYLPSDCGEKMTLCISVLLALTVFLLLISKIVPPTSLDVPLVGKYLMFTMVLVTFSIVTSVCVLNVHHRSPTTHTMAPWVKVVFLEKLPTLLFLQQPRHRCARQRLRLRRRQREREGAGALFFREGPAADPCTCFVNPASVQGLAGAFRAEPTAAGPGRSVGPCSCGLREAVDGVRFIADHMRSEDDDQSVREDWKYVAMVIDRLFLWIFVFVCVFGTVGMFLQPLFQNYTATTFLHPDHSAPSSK
Procedure: ^3 H-Nicotine binding to rat cerebral membranes was performed according to modifications of the method of Flyn and Mash (J. Neurochem. 47:1948 (1986)). ^3 H-Nicotine (80 ci/mmol; New England Nuclear Corporation, Boston, Mass.) was used as the ligand for nicotinic acetylcholine receptor binding assays. All other reagents were purchased from the Sigma Chemical Co. (St. Louis, Mo.).
Male Sprague-Dawley rats (250-400 gm) were sacrificed by decapitation, the brains removed and the cerebral cortex dissected on ice. Synaptic membranes were prepared by homogenizing the cortical tissue in 20 volumes of ice-cold modified Tris buffer (50 mM Tris pH 7.4, 120 mM NaCl, 5 mM KCl, 2 mM EDTA, 1 mM PMSF) with a polytron (20 sec at setting 5-6) followed by centrifugation (15 min at 5,000×g) at 4° C. The resultant pellet was rehomogenized and centrifuged twice. The final pellet was resuspended in ice-cold assay buffer (50 mM Tris pH 7.4, 120 mM NaCl, 5 mM KCl, 2 mM CaCl2, 1 mM MgCl2) at a concentration of membrane equivalent to 1 gm wet weight cortex per 10 ml buffer. After protein determination the final membrane preparation was diluted with buffer to 3 mg protein/mi. This membrane preparation was used in either the fresh state or frozen (-70° C.) then thawed.
The binding assay is performed manually using 96-well plates, or using a Biomek automated work station (Beckman Instrument Co.). ^3 H-Nicotine was diluted in assay buffer to give a final concentration of 1.9 nM. The Biomek automated work station was programmed to automatically transfer 750 μl of assay buffer with ^3 H-nicotine, 230 μl of membrane preparation and 20 μl of solution containing the compound of interest in assay buffer, DMSO, ethanol:DMSO (1:1) or appropriate vehicle to the 96-well plate. Atropine was added to the incubation buffer at a final concentration of 3 μM to block binding to muscarinic acetylcholine receptor sites. The plates were maintained on ice for 60 min and the tissue-bound radioactivity was separated from the free by rapid filtration in a Brandel Harvester onto GF/C filters presoaked in 0.5% polyethyleneimine for at least 2 hr. The filters were washed with 4×2 ml of ice-cold assay buffer and filters were transferred to vials to which 4 ml of scintillation cocktail was added. The radioactivity was measured in a LS-6500 Beckman Liquid Scintillation Counter in an autodpm mode. Data were analyzed bylog-logit transformation or non-linear regression analysis (e.g., employing GraphPad Prism, available from GraphPad Software, San Diego, Calif.) to give IC50 values. Non-specific binding was defined by 10 μM cytisine.

[8] = target: muscarinic acetylcholine receptors; test: ^3 H-QNB (quinuclidinyl benzilate) binding/displacement, rat cerebral membranes; conditions: ^3 H-QNB 60 pM, rat cerebral membranes
[9] = 1 h, 0-60 min, read-out: Ambulation (cross overs), percent of change from control
[10] = 1 h, 0-60 min, read-out: General Activity (beam breaks), percent of change from control
[11] = 2 h, 60-120 min, read-out: Ambulation (cross overs), percent of change from control
[12] = 2 h, 60-120 min, read-out: General Activity (beam breaks), percent of change from control

| Structure (SMILES) | percent fractional release, ^3 H-Dopamine, Olfactory Tubercles [1] [%] | percent fractional release, ^3 H-Dopamine, Striatum [2] [%] | percent fractional release, ^3 H-Norepinephrine, Thalamus [3] [%] | change in vivo at 20 mg/kg (rats; [9]) [%] | change in vivo at 20 mg/kg (rats; [10]) [%] | change in vivo at 20 mg/kg (rats; [11]) [%] | change in vivo at 20 mg/kg (rats; [12]) [%] | percent fractional release, ^3 H-Norepinephrine, Hippocampus [4] [%] | percent fractional release, ^3 H-Norepinephrine, Prefrontal Cortex [5] [%] | change in vivo at 0.5 mg/kg (rats; 2 h, 60-120 min, 0.5 mg/kg salt, read-out: General Activity (beam breaks), percent of change from control) [%] | Percent change from control (ipsilateral rotations) [6] | IC50 [7] [µM] | IC50 [8] [µM] |
| --- | --- | --- | --- | --- | --- | --- | --- | --- | --- | --- | --- | --- | --- |
| CN1CCCC1c1cncc(-c2ccc(F)cc2)c1.O=C(O)/C=C/C(=O)O (stereo not drawn) [A = CH2; R^7 = CH3; R^5 = 4-fluorophenyl, 5-(4-Fluorophenyl)-3-(1-methyl-2-pyrrolidinyl) pyridine fumarate] | 2.68 | 1.96 | 0.9 | 21 | 95 | 14 | 173 | 0.58 | 1.23 |  |  |  |  |
| CC(N)Cc1ccccc1 (stereo not drawn) [Amphetamine, amphetamine, reference compound] |  |  |  |  |  |  |  |  |  | 456 | +487% |  |  |
| CN1CCCC1c1cncc(-c2ccc(O)c(F)c2)c1.O=C(O)/C=C/C(=O)O (stereo not drawn) [R^5 = 3-fluoro-4-hydroxyphenyl, 5-(4-hydroxy-3-fluorophenyl)-3-(1-methyl-2-pyrrolidinyl)pyridine fumarate] | 7.07 | 3.33 |  | 49 | 63 | -14 | 26 | 1.47 | 1.14 |  |  | 0.029 | 35 |
| CN1CCCC1c1cncc(-c2ccc(-c3ccccc3)cc2)c1 (stereo not drawn) [R^5 = 4-biphenyl, 5-(4-Biphenyl)-3-(1-methyl-2-pyrrolidinyl)pyridine fumarate] | 6.3 | 2.2 | 1.1 | -9 | -17 | 73 | 98 | 2.9 | 3.4 |  |  | 0.047 | 9.5 |
| CN1CCCC1c1cncc(-c2ccc(O)cc2)c1.O=C(O)/C=C/C(=O)O (stereo not drawn) [R^5 = 4-hydroxyphenyl, 5-(4-Hydroxyphenyl)-3-(1-methyl-2-pyrrolidinyl)pyridine fumarate] | 6.62 | 3.73 | 2.3 | 74 | 96 | 110 | 7 | 3.03 | 3.16 |  |  | 0.0054 | 19.1 |
| COc1ccc(-c2cncc(C3CCCN3C)c2)cc1.O=C(O)/C=C/C(=O)O (stereo not drawn) [R^5 = 4-methyoxyphenyl, 5-(4-Methoxyphenyl)-3-(1-methyl-2-pyrrolidinyl)pyridine fumarate] | 4.0 | 2.1 | 0.52 | 58 | 83 | 31 | 22 | 0.99 | 1.04 |  |  | 0.018 | 37.7 |
